Where two headings read alike, the source gives them in different places.
Biological target: T1, human M2 receptor (Homo sapiens, UniProt P08172)
T1 sequence (P08172 1-466): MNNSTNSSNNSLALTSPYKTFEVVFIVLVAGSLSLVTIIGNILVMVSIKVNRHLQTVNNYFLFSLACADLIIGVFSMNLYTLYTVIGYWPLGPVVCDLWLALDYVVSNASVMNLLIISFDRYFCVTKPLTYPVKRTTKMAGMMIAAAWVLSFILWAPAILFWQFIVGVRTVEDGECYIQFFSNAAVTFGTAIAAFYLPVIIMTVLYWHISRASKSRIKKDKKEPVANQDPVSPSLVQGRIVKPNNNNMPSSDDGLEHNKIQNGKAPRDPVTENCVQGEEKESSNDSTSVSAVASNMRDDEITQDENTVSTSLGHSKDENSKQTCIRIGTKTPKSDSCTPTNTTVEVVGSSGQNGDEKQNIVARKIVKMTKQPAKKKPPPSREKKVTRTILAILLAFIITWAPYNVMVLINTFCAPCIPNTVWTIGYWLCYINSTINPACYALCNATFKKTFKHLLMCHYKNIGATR
Conditions: for Efficiency: boosting of the acetylcholine effect at EC20 acetylcholine concentration; for Emax: read-out: Efficiency, boosting of the acetylcholine effect at EC20 acetylcholine concentration

[1] = Receptor activity EC50, M2-GIRK1/4 activation test, acetylcholine at EC20, allosteric potency, in some cases mean values from two or more determinations
[2] = Receptor activity EC50, allosteric potency at EC20 acetylcholine, M2-GIRK1/4 reporter cells, in some cases mean of two or more determinations

Compound	EC50 [1]	EC50 [2]	Efficiency (M2-GIRK1/4 reporter cells)	Emax (M2-GIRK1/4 reporter cells)
O=C(NC1(C(F)(F)F)CCCC1)c1cn(-c2ccc(F)cc2F)c2nc(NCC(F)(F)F)ccc2c1=O [Example 96, 1-(2,4-Difluorophenyl)-4-oxo-7-[(2,2,2-trifluoroethyl)amino]-N-[1-(trifluoromethyl)cyclopentyl]-1,4-dihydro-1,8-naphthyridine-3-carboxamide]	134 nM			
CC(C)Nc1ccc2c(=O)c(C(=O)NC34CCC(CC3)CC4)cn(-c3ccc(F)cc3F)c2n1 [compound 159]	117 nM			
CN(C)c1ccc2c(=O)c(C(=O)NC34CCC(F)(CC3)CC4)cn(-c3ccc(F)cc3F)c2n1 [Example 47, 1-(2,4-Difluorophenyl)-7-(dimethylamino)-N-(4-fluorobicyclo[2.2.2]oct-1-yl)-4-oxo-1,4-dihydro-1,8-naphthyridine-3-carboxamide]	43 nM			
CC[C@@H](NC(=O)c1cn(-c2ccc(F)cc2F)c2nc(N3CCC(O)(O)C(F)C3)ccc2c1=O)C(F)(F)F (mixture of isomers) [Example 34, 1-(2,4-Difluorophenyl)-7-[3-fluoro-4,4-dihydroxypiperidin-1-yl]-4-oxo-N-[(2R)-1,1,1-trifluorobutan-2-yl]-1,4-dihydro-1,8-naphthyridine-3-carboxamide (diastereomer mixture)]	95 nM			
CC(C)(NC(=O)c1cn(-c2c(F)cc(F)cc2F)c2nc(N3CCCN(CCO)C3=O)ccc2c1=O)C(F)F [Example 382, N-(1,1-Difluoro-2-methylpropan-2-yl)-7-[3-(2-hydroxyethyl)-2-oxotetrahydropyrimidin-1(2H)-yl]-4-oxo-1-(2,4,6-trifluorophenyl)-1,4-dihydro-1,8-naphthyridine-3-carboxamide]	72 nM			
CCCC(NC(=O)c1cn(-c2ccc(F)cc2F)c2nc(NCC(F)F)ccc2c1=O)C(F)(F)F (centres unmarked) [Example 124, 7-[(2,2-Difluoroethyl)amino]-1-(2,4-difluorophenyl)-4-oxo-N-[1,1,1-trifluoropentan-2-yl]-1,4-dihydro-1,8-naphthyridine-3-carboxamide]	155 nM			
CC(NC(=O)c1cn(-c2ccc(F)cc2F)c2nc(N3C[C@@H](O)CC3=O)ccc2c1=O)C(F)(F)C(F)(F)F (single isomer, unassigned) [Example 624]		140 nM	96.5%	
CC[C@H](NC(=O)c1cn(-c2c(F)cc(F)cc2Cl)c2nc(N3C[C@@](C)(O)C[C@H]3C)ccc2c1=O)C(F)(F)F [Example 334, 1-(2-Chloro-4,6-difluorophenyl)-7-[(2R,4S)-4-hydroxy-2,4-dimethylpyrrolidin-1-yl]-4-oxo-N-[(2S)-1,1,1-trifluorobutan-2-yl]-1,4-dihydro-1,8-naphthyridine-3-carboxamide]	7 nM			
CC(NC(=O)c1cn(-c2c(F)cc(F)cc2F)c2nc(N3C[C@@H](O)CC3=O)ccc2c1=O)(C1CC1)C(F)(F)F (mixture of isomers) [Example 508, N-[2-Cyclopropyl-1,1,1-trifluoropropan-2-yl]-7-[(4S)-4-hydroxy-2-oxopyrrolidin-1-yl]-4-oxo-1-(2,4,6-trifluorophenyl)-1,4-dihydro-1,8-naphthyridine-3-carboxamide]		7 nM		93.5%
O=C(Nc1c(Cl)cccc1Cl)c1cn(-c2c(F)cc(F)cc2F)c2nc(N3C[C@@H](O)CC3=O)ccc2c1=O [Example 592, N-(2,6-Dichlorophenyl)-7-[(4S)-4-hydroxy-2-oxopyrrolidin-1-yl]-4-oxo-1-(2,4,6-trifluorophenyl)-1,4-dihydro-1,8-naphthyridine-3-carboxamide]		16 nM		99.5%
O=C(NC(CC(F)(F)F)C(F)(F)F)c1cn(-c2c(F)cc(F)cc2F)c2nc(N3C[C@@H](O)CC3=O)ccc2c1=O (single isomer, unassigned) [Example 608]		22 nM	100.0%	
CN(C)c1ccc2c(=O)c(C(=O)NC(C)(C)C)cn(-c3ccc(F)cc3Cl)c2n1 [Example 155, N-tert-Butyl-1-(2-chloro-4-fluorophenyl)-7-(dimethylamino)-4-oxo-1,4-dihydro-1,8-naphthyridine-3-carboxamide]	173 nM			
CC[C@@H](NC(=O)c1cn(-c2ccc(F)cc2F)c2nc(N3CCOC(C(F)F)C3)ccc2c1=O)C(F)(F)F (mixture of isomers) [Example 263, 7-[2-(Difluoromethyl)morpholin-4-yl]-1-(2,4-difluorophenyl)-4-oxo-N-[(2R)-1,1,1-trifluorobutan-2-yl]-1,4-dihydro-1,8-naphthyridine-3-carboxamide]	440 nM			
CCC12CC3CC(C1)CC(NC(=O)c1cn(-c4ccc(F)cc4Cl)c4nc(N(C)C)ccc4c1=O)(C3)C2 [Example 157, 1-(2-Chloro-4-fluorophenyl)-7-(dimethylamino)-N-(3-ethyltricyclo[3.3.1.1^3,7]dec-1-yl)-4-oxo-1,4-dihydro-1,8-naphthyridine-3-carboxamide]	67 nM			
CN(C)c1ccc2c(=O)c(C(=O)NC34CC5CC(C3)CC(C(F)(F)F)(C5)C4)cn(-c3ccc(F)cc3Cl)c2n1 [Example 153, 1-(2-Chloro-4-fluorophenyl)-7-(dimethylamino)-4-oxo-N-[3-(trifluoromethyl)tricyclo[3.3.1.1^3,7]dec-1-yl]-1,4-dihydro-1,8-naphthyridine-3-carboxamide]	104 nM			

Next, values leading:

EC50 [1]	EC50 [2]	Efficiency (M2-GIRK1/4 reporter cells)	Emax (M2-GIRK1/4 reporter cells)	Compound
	23 nM	91.5%		O=C(N[C@@H](C1CC1)C(F)(F)F)c1cn(-c2c(F)cc(F)cc2F)c2nc(N3CC(O)C4(CC4)C3)ccc2c1=O (single isomer, unassigned) [Example 602]
	16 nM		99.5%	CC(C)C(NC(=O)c1cn(-c2c(F)cc(F)cc2F)c2nc(N3CCNC3=O)ccc2c1=O)C(F)(F)F (racemic) [Example 536, 4-Oxo-7-(2-oxoimidazolidin-1-yl)-N-[1,1,1-trifluoro-3-methylbutan-2-yl]-1-(2,4,6-trifluorophenyl)-1,4-dihydro-1,8-naphthyridine-3-carboxamide]
	40 nM		88.6%	CC[C@H](NC(=O)c1cn(-c2c(F)cc(F)cc2F)c2nc(N3CC(O)C4(CC4)C3)ccc2c1=O)C(F)(F)F (mixture of isomers) [Example 619, 7-[7-Hydroxy-5-azaspiro[2.4]hept-5-yl]-4-oxo-N-[(2S)-1,1,1-trifluorobutan-2-yl]-1-(2,4,6-trifluorophenyl)-1,4-dihydro-1,8-naphthyridine-3-carboxamide]
	73 nM		100%	O=C(N[C@@H](C1CC1)C(F)(F)F)c1cn(-c2c(F)cc(F)cc2F)c2nc(N3CC(O)C4(CC4)C3)ccc2c1=O (single isomer, unassigned) [Example 601]
	23 nM		98.5%	O=C(N[C@@H](C1CC1)C(F)(F)F)c1cn(-c2c(F)cc(F)cc2F)c2nc(N3CCC(CO)C3=O)ccc2c1=O (some centres unmarked) [Example 468, N-[(1 S)-1-Cyclopropyl-2,2,2-trifluoroethyl]-7-[3-(hydroxymethyl)-2-oxopyrrolidin-1-yl]-4-oxo-1-(2,4,6-trifluorophenyl)-1,4-dihydro-1,8-naphthyridine-3-carboxamide]
	96 nM	97.5%		CC1CN(c2ccc3c(=O)c(C(=O)N[C@@H](C4CC4)C(F)(F)F)cn(-c4c(F)cc(F)cc4F)c3n2)C(=O)O1 (stereo in doubt) [Example 445, N-[(1 S)-1-Cyclopropyl-2,2,2-trifluoroethyl]-7-[(5S)-5-methyl-2-oxo-1,3-oxazolidin-3-yl]-4-oxo-1-(2,4,6-trifluorophenyl)-1,4-dihydro-1,8-naphthyridine-3-carboxamide]
	14 nM		96%	CC(C)C(NC(=O)c1cn(-c2c(F)cc(F)cc2F)c2nc(N3C[C@@H](O)[C@H](O)C3)ccc2c1=O)C(F)(F)F (mixture of isomers) [Example 552, 7-[(3R,4R)-3,4-Dihydroxypyrrolidin-1-yl]-4-oxo-N-[1,1,1-trifluoro-3-methylbutan-2-yl]-1-(2,4,6-trifluorophenyl)-1,4-dihydro-1,8-naphthyridine-3-carboxamide]
	23 nM	98.5%		O=C(NC(CC(F)(F)F)C1CC1)c1cn(-c2c(F)cc(F)cc2F)c2nc(N3C[C@@H](O)[C@H](O)C3)ccc2c1=O (single isomer, unassigned) [Example 440]
	6 nM		96%	O=C(N[C@H](C1CC1)C(F)(F)F)c1cn(-c2c(F)cc(F)cc2Cl)c2nc(N3CC4CC4(O)C3)ccc2c1=O (mixture of isomers) [Example 415, 1-(2-Chloro-4,6-difluorophenyl)-N-[(1R)-1-cyclopropyl-2,2,2-trifluoroethyl]-7-[1-hydroxy-3-azabicyclo[3.1.0]hex-3-yl]-4-oxo-1,4-dihydro-1,8-naphthyridine-3-carboxamide]
89 nM				O=C(N[C@@H](C1CC1)C(F)(F)F)c1cn(-c2c(F)cc(F)cc2F)c2nc(N3CCNS3(=O)=O)ccc2c1=O [Example 373, N-[(1 S)-1-Cyclopropyl-2,2,2-trifluoroethyl]-7-(d1,1-dioxido-1,2,5-thiadiazolidin-2-yl)-4-oxo-1-(2,4,6-trifluorophenyl)-1,4-dihydro-1,8-naphthyridine-3-carboxamide]

From patent publication US20190367516A1 (Bayer Pharma Aktiengesellschaft, priority 2015, published 2019)
